Source: publication PMC12652692, “Synthesis and In Vitro Anticancer Evaluation of Novel Phosphonium Derivatives of Chrysin” (International Journal of Molecular Sciences, 2025)

Columns and labels:
[1] = tested on: 60 human cancer cell lines; assay: NCI60 one-dose screen, overall mean; format: cell-based; conditions: mean over all 60 cell lines, read-out: Mean growth percent
Protocol: (§1) The screening results are presented in the Supplementary Materials (Table S1), where the cytotoxicity was determined for the 10 µM concentration. […] The negative numbers indicate significant decreases in the cell number. […] Compared to the reference chrysin (2), all phosphonium hybrids (3a–h) had significant antiproliferative activities. […] At the same time, it should be noted that more than 60% average reduction was also obtained in the case of the other examined conjugates (3a–h).
(§2) A detailed description of the NCI screening procedures, including the one-dose and five-dose tests, can be found in the Supplementary Materials, on the website of NCI [39], and in our previous work.
(§3) A detailed description of the NCI screening procedures can also be found on the website of NCI [39], and in our […]
(§4) All candidates were examined at first at a single high dose (10 μM) in the full NCI60 cell panel. The value reported for the one-dose test is growth relative to the no-drug control and relative to the time zero number of cells. This made possible the disclosure of both growth inhibition (numbers between 0 and 100) and lethality (numbers less than 0). For example, a value of 100 means no growth inhibition. A value of 20 would mean 80% growth inhibition. A value of 0 means no net growth over the course of the analysis. A value of −20 would mean 20% lethality. A value of −100 means all cells are dead. […]
(§5) concentration levels. The human tumor cell lines of the cancer screening panel were grown in RPMI 1640 medium containing 5% fetal bovine serum and 2 mM l-glutamine. Characteristically, cells were injected in 96-well microtiter plates in 0.1 mL at plating densities ranging from 5000 to 40,000 cells/well, depending on the doubling time of individual cell lines. After cell inoculation, the microtiter plates were incubated at 37 °C, 5% carbon dioxide, 95% air, and 100% relative humidity for 24 hours before the addition of tested compounds. After 24 hours, 2 plates of each cell line were fixed in situ with Cl3COOH (TCA), to represent a measurement of the cell population for each cell line at the time of drug addition (tz). Tested compounds were solubilized in DMSO at 400-fold the desired final maximum test concentration and stored frozen before application. In the course of the drug addition, an aliquot of frozen concentrate was thawed and diluted to twice the desired final maximum test concentration with a complete medium containing 50 μg mL−1 gentamicin. Additional four, 10-fold or ½ log serial dilutions were produced to furnish a total of five drug concentrations plus control. Aliquots of 0.1 mL of these different drug dilutions were added to the appropriate microtiter wells already containing 0.1 mL of medium, resulting in the required final drug concentrations.
(§6) Following drug addition, the plates were incubated at 37 °C, 5% carbon dioxide, 95% air, and 100% relative humidity for an additional 48 hours. For adherent cells, the test was finished by the addition of cold Cl3COOH. Cells were fixed in situ by the addition of 50 μL of cold 50% (w/v) Cl3COOH, and incubated at 4 °C for 1 hour. The supernatant was discarded, and the plates were washed with H2O (5×) and dried in air. Sulforhodamine B (SRB) solution (0.1 mL) at 0.4% (w/v) in 1% CH3COOH was added to each well, and plates were incubated at RT for 10 min. After staining, the unbound dye was removed by washing five times with 1% CH3COOH, and the plates were dried in the air. The bound stain is afterward solubilized with a 10 mM trizma base, and the absorbance is read on an automated plate reader at λ = 515 nm. Utilizing the seven absorbance measurements [time zero (tz), control growth (c), and test growth in the presence of the drug at the five concentration levels (ti)], the percentage growth was determined at each of the drug concentration levels. Growth inhibition (%) was calculated as:
(§7) [(ti − tz)/(c − tz)] × 100, for concentrations where ti ≥ tz (1) […]

non-tumor CHO cells = assay: CellTiter-Glo Luminescent Cell Viability Assay; format: cell-based, Chinese hamster; conditions: 48 h; for IC50: Cricetulus griseus, non-tumor CHO cells, read-out: Estimated IC50
Protocol: (§8) Given their potent antiproliferative effects on tumor cells, two conjugates were selected for testing on non-tumor CHO cells to investigate their selectivity. […] Cell viability of non-tumor CHO cells was assessed using the CellTiter-Glo Luminescent Cell Viability Assay (Promega, Madison, WI, USA), following treatment with 3a and 3f. Stock solutions (10 mM in DMSO) were stored frozen until use. CHO cells were cultured in complete DMEM (low glucose, 1 g/L) supplemented with 10% fetal bovine serum, 1% GlutaMAX-I, 1% non-essential amino acids, and 0.1% penicillin–streptomycin. Cells were seeded into opaque 96-well plates (5000 cells/100 µL/well), with peripheral wells filled with sterile PBS to minimize edge effects. After overnight incubation (37 °C, 5% CO2), cells were treated with increasing concentrations of the compounds (10^−5, 10^−6, and 10^−7 M) diluted in complete DMEM. Untreated cells served as controls, and complete DMEM was used to determine background luminescence. DMSO controls corresponding to the solvent concentrations of each treatment condition were also included; no significant effect on cell viability was observed. After 48 h, CellTiter-Glo reagent was added, and luminescence was measured using an EnSpire AlphaLisa microplate reader (Perkin Elmer). Relative light unit (RLU) values were normalized to untreated controls (100% viability). Non-linear regression analysis was performed in GraphPad Prism 8.0.1 to estimate IC50 values by fitting sigmoidal dose–response curves (log[inhibitor] vs. normalized response, variable slope).

T-47D = assay: NCI60 one-dose screen; format: cell-based, human; conditions: 10 μM
Protocol: as §1, §2, §3, §4, §5, §6, §7

PC-3 = assay: NCI60 one-dose screen; format: cell-based, human; conditions: PC-3, 10 μM
Protocol: as §1, §2, §3, §4, §5, §6, §7

SR = assay: NCI60 one-dose screen; format: cell-based, human; conditions: 10 μM
Protocol: as §1, §2, §3, §4, §5, §6, §7

UACC-62 = assay: NCI60 one-dose screen; format: cell-based, human; conditions: UACC-62, 10 μM
Protocol: as §1, §2, §3, §4, §5, §6, §7

HOP-92 = assay: NCI60 one-dose screen; format: cell-based, human; conditions: HOP-92, 10 μM
Protocol: as §1, §2, §3, §4, §5, §6, §7

[2] = CellTiter-Glo Luminescent Cell Viability Assay; format: cell-based, Chinese hamster; conditions: Chinese hamster, CHO cells (non-tumor), CHO cells, 10^−6 M
Protocol: as §8

[3] = tested on: 60 human cancer cell lines; set-up: method as in doi:10.3311/PPch.21919, PMID 34874114; conditions: previous work ref 24, 26; cited from earlier work

Compound	activity at 10 µM [1] [%]	cell viability (non-tumor CHO cells; CHO cells, 10^−6 M)	IC50 (non-tumor CHO cells) [nM]	Growth percent (T-47D) [%]	Growth percent (PC-3) [%]	Growth percent (SR) [%]	Growth percent (UACC-62) [%]	Growth percent (HOP-92) [%]	viability at 48 h [2] [%]	antiproliferative effects (in words) [3]
O=c1cc(-c2ccccc2)oc2cc(OCCCC[P+](c3ccccc3)(c3ccccc3)c3ccccc3)cc(O)c12 [3a]	-74.3	minimally affected	2650	−62.52	−87.34	−39.83	−59.51	–	–	–
Cc1ccc([P+](CCCCOc2cc(O)c3c(=O)cc(-c4ccccc4)oc3c2)(c2ccc(C)cc2)c2ccc(C)cc2)cc1 [3b]	-69.9	–	–	−52.52	–	−36.14	−88.32	–	–	–
COc1ccc([P+](CCCCOc2cc(O)c3c(=O)cc(-c4ccccc4)oc3c2)(c2ccc(OC)cc2)c2ccc(OC)cc2)cc1 [3c]	-68.3	–	–	–	−82.70	–	–	−79.86	–	–
O=c1cc(-c2ccccc2)oc2cc(OCCCC[P+](c3ccc(F)cc3)(c3ccc(F)cc3)c3ccc(F)cc3)cc(O)c12 [3d]	-69.5	–	–	−53.27	–	−36.14	−96.92	–	–	–
O=c1cc(-c2ccccc2)oc2cc(OCCCC[P+](C3CCCCC3)(C3CCCCC3)C3CCCCC3)cc(O)c12 [3e]	-76	–	–	–	−70.81	–	–	−75.86	–	–
COc1c(C)cc([P+](CCCCOc2cc(O)c3c(=O)cc(-c4ccccc4)oc3c2)(c2cc(C)c(OC)c(C)c2)c2cc(C)c(OC)c(C)c2)cc1C [3f]	-63.4	–	1150	−52.77	−76.48	23.00	−80.44	−68.75	60.2 ± 2.9	–
Cc1ccccc1[P+](CCCCOc1cc(O)c2c(=O)cc(-c3ccccc3)oc2c1)(c1ccccc1C)c1ccccc1C [3g]	-97.7	–	–	–	−97.92	–	−97.94	−98.85	–	–
O=c1cc(-c2ccccc2)oc2cc(OCCCC[P+](c3ccccc3)(c3ccccc3)c3ccccn3)cc(O)c12 [3h]	-72.3	–	–	−49.47	−35.64	0.35	−73.54	−69.74	–	–
O=c1cc(-c2ccccc2)oc2cc(O)cc(O)c12 [compound 2, 5,7-dihydroxyflavone, reference compound]	96.1	–	–	101.44	93.17	77.87	82.24	77.93	–	does not exert remarkable antiproliferative effects
